A short description of data set [1]: Serum pharmacokinetics in rats after consumption of 500 mg/kg BW of BF extracts. The note with it: for Detection in rat plasma/blood after administration of BF extracts: 500 mg/kg BW BF extracts. In kind it is in vivo, SD rats. The procedure: (§1) A total of 24 male SD rats aged between 6 and 8 weeks (200–220 g) were acquired from the Laboratory Animal Center of Jiangxi University of Chinese Medicine (Nanchang, China). Prior to experimentation, the rats were acclimated for 7 days in an air-conditioned room maintained at 24 ± 1 °C with a 12 h light/dark cycle. During this period, they had free access to food and water. After adaptive feeding, rats were randomly divided into three groups (n = 8), including a negative control, serum collection, and urine collection groups. […] To establish baseline data, blood samples were collected from all rats before administering the BF extracts. Blood was collected from the orbits at 15 min, 30 min, 1 h, 1.5 h, 2 h, 4 h, 6 h, 8 h, and 10 h after drug administration. Urine was collected at 6, 12, and 24 h after administration. Pretreatment of serum and urine samples was according to our previous study. The animal experiments were approved by the Animal Ethics Committee of Jiangxi University of Chinese Medicine (TEMPOR20230112).
The quantification of substances identified was performed using an AB TRIPLE QUAD 4500 HPLC-MS2 (AB SCIEX, Framingham, MA, USA) system equipped with a C18 column (2.1 × 100 mm, 1.7 μm particle size; ACQUITY) at room temperature (25 °C). The mobile phase consisted of A (water containing 0.2% formic acid, v/v) and B (acetonitrile containing 0.2% formic acid, v/v) and the following binary program was used: 0–3 min, 5% B; 3–4 min, 95% B; 4–4.1 min, 95–5% B; 4.1–6.0 min, 5% B. The flow rate was 0.3 mL/min, and the injection volume was 10 μL. For sensitive detection and quantification, the analysis employed electrospray ionization (ESI) followed by multiple reaction monitoring (MRM) to selectively monitor the fragmentation patterns of the target analytes. Data acquisition and processing were performed with Qualbrowser.
Blood concentration/time data analysis was performed by non-compartment model analysis and processed using Peak View®1.6 (AB SCIEX), according to a previous publication. All data are presented as mean ± standard deviation (SD). The maximum plasma concentration (Cmax), and the time to reach the maximum plasma concentration (tmax) was calculated from the observed values.

Data set [2] can be described thus: Identification of prototypes and metabolites in rat serum and urine by UPLC-LTQ-Orbitrap-MS2 after BF extracts. It counts as in vivo, SD rats. Particulars: for Location: rat serum or urine after 500 mg/kg BW BF extracts, UPLC-LTQ-Orbitrap-MS2; for Detected in serum and/or urine: rat, after gavage of BF extracts.
Source text: as §1, with “Prior to experimentation, the rats were acclimated for 7 days in an air-conditioned room maintained at 24 ± 1 °C with a 12 h light/dark cycle.” left out, “Blood was collected from the orbits at 15 min, 30 min, 1 h, 1.5 h, 2 h, 4 h, 6 h, 8 h, and 10 h after drug administration. Urine was collected at 6, 12, and 24 h after administration.” left out
The metabolic profile from blood and urine samples were conducted by UPLC-LTQ-Orbitrap-MS2 (Thermo Scientific, Bremen, Germany) according to previously published methods. The samples were prepared by SPE, centrifuged at 4 °C and 2000 rpm, and stored at −80 °C. […] The LTQ-Orbitrap-MS2 was operated in negative mode with a scan range of 50–2000 m/z. A data-dependent scan with CID was performed for fragmentation. The collision energy was set at 45 eV. Data acquisition and processing were performed with Xcalibur v.2.0 software (Thermo Fisher, San Jose, CA, USA) and Qualbrowser.

Details of data set [3]: method as in PMID 16848510. Particulars: cited from earlier work.
Setting [4] is: male, SD, rat serum, oral 500 mg/kg BW BF extracts, n = 8.
[5] abbreviates: rat serum, oral 500 mg/kg BW BF extracts, n = 8.

Like-named read-outs stand apart in the source and are kept apart here.

The Cmax is the highest concentration seen after dosing. As usually defined, the half-life is the time in which the quantity being followed falls by half. A low value points to rapid decline. For `O=C(O)c1ccc(O)cc1` [4-Hydroxybenzoic acid, 4-hydroxybenzoic acid], the AUC(0-t) in data set [1] (male, SD, rat serum, oral 500 mg/kg BW BF extracts, 0 to 10 h, n = 8, read-out: AUC0-10) was 0.0313 ± 0.00191 µM·h. In data set [1] (setting [4]), this compound had a Cmax of 6.98 ± 0.805 nM and a half-life of 6.48 ± 5.16 h. In addition, in data set [1] (male, SD, rat serum, oral 500 mg/kg BW BF extracts, n = 8, read-out: tmax), the tmax was found to be 1 h. For the same compound, the “Detection in rat plasma/blood after administration of BF extracts” value (shortened to “Detection in rat plasma/blood”) in data set [1] is on record as “detected”.
`OC[C@H]1O[C@@H](Oc2cc3c(O)cc(O)cc3[o+]c2-c2cc(O)c(O)c(O)c2)[C@H](O)[C@@H](O)[C@@H]1O` [Delphinidin 3-glucoside, delphinidin 3-glucoside] displayed an AUC0-10 in data set [1] (rat serum, oral 500 mg/kg BW BF extracts, 0 to 10 h, n = 8) of 0.054654 ± 0.009089 µM·h. In data set [1] (setting [5]), the Cmax was determined as 51.6 ± 3.2 nM, the t1/2 was 1.639 ± 0.271 h and the tmax worked out at 0.5 h. In addition, the “Detection in rat plasma/blood” value in data set [1] is on record as “detected”. Moreover, in data set [2], the Location result is “S, U”; the “Detected in serum and/or urine” value is “both serum and urine”.
On to `O=C(O)c1ccc(O)c(OC2OC(C(=O)O)C(O)C(O)C2O)c1` (stereo not shown) [M11, PCA-3-glucuronide], for which the Location entry in data set [2] is “S”.
Take `COc1cc(C(=O)O)ccc1O[C@@H]1O[C@H](C(=O)O)[C@@H](O)[C@H](O)[C@H]1O` [M12, VA-4-glucuronide]: in data set [2], the Location entry is on record as “S”.
On to `O=C(O)c1ccc(O[C@@H]2O[C@H](C(=O)O)[C@@H](O)[C@H](O)[C@H]2O)c(O)c1` [M13, PCA-4-glucuronide], for which, in data set [2], the Location result is “S, U”.
Same read-out and setting: next, `Oc1cc(O)c2cc(O)c(-c3cc(O)c(O)c(O)c3)[o+]c2c1` [M16, delphinidin]: “S, U”.
Take `C[C@@H]1O[C@@H](OC[C@H]2O[C@@H](Oc3c(-c4ccc(O)c(O)c4)oc4cc(O)cc(O)c4c3=O)[C@H](O)[C@@H](O)[C@@H]2O)[C@H](O)[C@H](O)[C@H]1O` [rutin]: the “Detected in serum and/or urine” value in data set [2] was “exclusively in urine”.
Take `O=C([O-])CC(=O)OC[C@H]1O[C@@H](Oc2cc3c(O)cc(O)cc3[o+]c2-c2cc(O[C@@H]3O[C@H](COC(=O)/C=C/c4ccc(O[C@@H]5O[C@H](COC(=O)/C=C/c6ccc(O)cc6)[C@@H](O)[C@H](O)[C@H]5O)cc4)[C@@H](O)[C@H](O)[C@H]3O)c(O)c(O[C@@H]3O[C@H](COC(=O)/C=C/c4ccc(O[C@@H]5O[C@H](COC(=O)/C=C/c6ccc(O)cc6)[C@@H](O)[C@H](O)[C@H]5O)cc4)[C@@H](O)[C@H](O)[C@H]3O)c2)[C@H](O)[C@@H](O)[C@@H]1O` [ternatin D1]: in data set [1], the “Detection in rat plasma/blood” value is recorded as “not detected”.
As for benzoic acid-4-glucuronide [M19], the Location entry in data set [2] was “S, U”.
As to cyanidin-3-(p-coumaroyl) glucose, in data set [2], the Location result was “S” and the “Detected in serum and/or urine” value is “serum”.
Consider “delphinidin-3-p-coumaroyl-rutinoside-5-glucoside [nasunin]”, for which, in data set [3], the “Time of rapid peak in rat plasma (postprandial)” value is listed as 15 min.

(Values after paper PMC11120612, “In Vitro and In Vivo Evaluating Bioaccessibility, Bioavailability, and Antioxidant Activities of Butterfly Pea Flower Containing Bioactive Constitutes” (Foods, 2024).)
